Usually IC50 stands for the concentration that inhibits the measured activity by half.

The values below come from patent US7396525B2, “Care/makeup compositions comprising a 2-alkylideneaminooxyacetamide compound for stimulating the growth of the hair or eyelashes and/or slowing loss thereof” (L'Oreal, priority 2003, dated 2008).

In the assay the target is T1, PGF synthase (PGFS) (Homo sapiens, UniProt P42330).
T1 construct: made in house
T1 sequence (P42330 1-323): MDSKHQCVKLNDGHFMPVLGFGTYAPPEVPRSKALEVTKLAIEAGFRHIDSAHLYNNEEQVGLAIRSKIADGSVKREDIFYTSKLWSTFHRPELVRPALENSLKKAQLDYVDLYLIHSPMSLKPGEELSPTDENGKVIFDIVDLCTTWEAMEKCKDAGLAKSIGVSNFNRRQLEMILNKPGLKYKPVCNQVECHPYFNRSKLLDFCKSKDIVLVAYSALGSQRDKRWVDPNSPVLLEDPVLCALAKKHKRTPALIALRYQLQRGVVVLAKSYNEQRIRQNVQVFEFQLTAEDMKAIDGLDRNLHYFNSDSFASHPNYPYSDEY
The experiment in a line: Test on PGF synthase (spectrophotometric, 340 nm, 9,10-phenanthrenequinone/β-NADPH). The class given is biochemical. The method, then: The enzyme PGFS is obtained as disclosed in FR-A-02/05067, at a concentration of 0.5 mg/ml, in suspension in an appropriate medium, and is blocked at −80° C. For the requirements of the test, this suspension is defrosted and stored in ice.
Furthermore, a Tris 100 mM, pH=6.5, buffer comprising 20 μM of 9,10-phenanthrenequinone*(P2896, Sigma-Aldrich, L'isle D'Abeau Chesne, BP 701, 38297, Saint Quentin Fallavier) and 100 μM of β-NADPH (N1630, Sigma-Aldrich, L'isle D'Abeau Chesne, BP 701, 38297, Saint Quentin Fallavier) is prepared in a brown bottle (exclusion of light). *A mother solution assaying 1 mM is prepared in absolute ethanol and is brought to 40° C.; the bottle is placed in an ultrasonic bath to facilitate the dissolution of the product.
0.950 ml of this buffer (brought beforehand to 37° C.) is introduced into the cell of a spectrophotometer (Perkin-Elmer, Lambda 2) thermostatically controlled at 37° C., the wavelength of which for the measurement is adjusted to 340 nm. 0.05 ml of enzymatic suspension at 37° C. is introduced into the cell concomitantly with the recording (corresponding to a fall in optical density at 340 nm). The maximum rate of reaction is noted.

`C/C(=N/OCC(=O)Nc1ccccc1)c1cccs1` [Compound 1, N-Phenyl-2({[(1Z)-1-(thien-2-yl)-ethylidene]amino}oxy)acetamide] yielded an IC50 of 50 to 100 µM.
